# Laboratory results published in US20230296590A1, “Devices and Methods to Induce Adult type Maturation of Human Pluripotent Stem Cell Derived Cardiomyocytes” (priority 2022, published 2023).
# “Also recorded” adds a separate entry of the source. Bridge positions count the residues as written; N and C are the ends. Ends that are not written are not given here.
# Tests used:
# Assay type in all cases: cell-based, human
# [1] = test system: hiPSC-CMs; test: Sarcoplasmic reticulum calcium content, caffeine-induced Ca2+ release, Fura2 imaging; conditions: 10 mM
# Experimental: To investigate calcium content of the sarcoplasmic reticulum (SR), Fura2 (ThermoFisher 3 uM) loaded cells were perfused with caffeine. Cells were initially perfused with modified Tyrode solution at 37C (pH 7.4) containing (in mM) 130 NaCl, 5 KCl, 1 MgCl2, 1.2 CaCl2, 20 Na-HEPES, 10 glucose, 1 pyruvate, 0.1% fatty acid free-BSA. After pacing the cells at 0.5 Hz for 30-40 sec, cells were perfused with the modified Tyrode buffer containing caffeine (10 mM). Images were analyzed using image J (NIH). Line plots (trace plots) were generated for both action potential and calcium transients by calculating average intensity (and standard deviation) from 3 biological batches with >100 cells for each timepoint and plotting it against the time (using R).
# [2] = test system: hiPSC-CMs; test: Acute pathological hypertrophy model (endothelin-1 treatment), functional evaluation; conditions: for effect on FAO / effect on OxPhos / effect on glycolysis: 10 nM, 48 hrs
# Experimental: Human iPSC culture and cardiac differentiation. Human iPSCs (WTC-11) were cultured using chemically defined medium and published protocols (Burridge et al., 2014; Tohyama et al., 2013). Undifferentiated iPSCs were seeded (125,000 cells per cm^2) on Geltrex (ThermoScientific)-coated six-well plates and maintained in E8 medium (Life Technologies) for 4 days when they reached 80-85% confluence. Medium was then changed to cardiac differentiation medium (CDM), consisting of RPMI 1640 medium (11875, ThermoScientific), 500 μg/ml O. sativa—derived recombinant human albumin (A9731, Sigma-Aldrich), and 220 μg/ml L-ascorbic acid (A4544-Sigma-Aldrich), containing B27 supplement-insulin free (A1895601 ThermoScientific) to initiate differentiation. On d0-d2, medium was supplemented with 6 μM CHIR99021 (LC Laboratories) for induction of mesoderm. On d4-d5, medium was supplemented with 10 uM IWR (Selleck Chemicals) for cardiac differentiation. Contracting cells are typically noted, starting on d7-d8. To purify cardiac myocytes, a variant of RPMI 1640 medium without D-glucose (11879, Life Technologies) was supplemented with 4 mM sodium lactate (L4263, Sigma-Aldrich) for 2 days on day 10 of differentiation followed by culture in cardiac media, containing B-27™ Supplement with insulin (17504001, ThermoScientific) in CDM medium (Tohyama et al., 2013). Cells were dissociated on d13-d14 using TrypLE (ThermoScientific) and plated/cultured on either flat/anisotropic cell culture surfaces for 15-16 further days (d30 for flat and CMM) or 45 days (d60 for flat culture surface) in cardiac culture media. Cardiac culture media was used in all the conditions from day 13-d14 onwards, and it was composed of RPMI-1640, lipid-enhanced Cellastium S, 220 μg/ml L-ascorbic acid and B27 with insulin. Control flat tissue-culture surfaces were coated with fibronectin at a concentration of 4 μg/cm^2. For hypertrophy induction, day 30 differentiated cells were treated with 10 nM endothelin 1 (E7764 Millipore Sigma) for 48 hrs in cardiac culture media.
# Mitochondrial respiration. Cellular energetics was monitored using the Seahorse Bioscience XF instrument in intact cells (non-permeabilized cells) and permeabilized cells(Afzal et al., 2017; Salabei et al., 2014). Intact cell respiration was monitored to evaluate the contribution of oxidative phosphorylation versus glycolysis, whereas permeabilized cell respiration was used to monitor electron transport chain (ETC) complex function/activity using ETC complex specific substrates and fatty acid oxidation.
# For permeabilized cell respiration, iPSC-CMs were permeabilized using […] of Seahorse XF Plasma Membrane Permeabilizer (Part #102504-100). In permeabilized cells only OCR is measured. Mitochondria respiration were assayed using Buffer (pH 7.2) containing 137 mM KCl, 2 mM KH2PO4, 0.5 mM EGTA, 2.4 mM MgCl2, 20 mM HEPES with 0.2% fatty acid-free BSA (Sigma). Respiration rates were normalized to the protein concentration using BCA assay. Complex I respiration were evaluated by 5 mM glutamate and 5 mM malate (G/M) to evaluate State 4 respiration; 4 mM ADP was then injected to evaluate State 3 respiration. Maximal respiratory capacity (uncoupled mitochondria) was measured by injecting […]. Coupling of Electron Transport Chain respiration to ATP synthesis were evaluated using the ATP synthase inhibitor oligomycin (4 uM). Complex II respiration were measured using 5 mM succinate. Fatty acid oxidation was measured by injecting 200 uM of Palmitoyl-1-carnitine chloride/2.5 mM Malate and assessing the increase in OCR.
# Florescence from cells (transduced with probes) was collected separately at a […] using an electron-multiplying charge-coupled device (EMCCD) camera using Andor Revolution X1 Spinning Disk confocal inverted microscope. Data was acquired with 2×2 pixel binning. ROS (roGFP2-Grx) probes were excited with 405 nm and 488 nm laser and emission was detected using bandpass filter of 500 nm-554 nm. […]
# [3] = test system: hiPSC-CMs; test: Optical recording of action potential with genetically encoded voltage indicators (Varnam, Arclight); conditions: cells on CMM
# Excerpt: Cyto-calcium, Action potential and redox handling. Cytoplasmic calcium and redox status of iPSC-CMs using spinning disk confocal microscope (Olympus/Andor Revolution XD) was monitored. 3rd gen. lentiviral probes using ViraPower™ Lentiviral mix was generated and transduced iPSC-CMs using MOI 5 (multiplicity of infection) that generated good signal to noise ratio. Cytoplasmic targeted roGFP-Grx1 probes(Gutscher et al., 2008), Calcium probe (genetically encoded Ca^2+ indicators (GECIs)-GCamP6f(Hubbi et al., 2013), Arclight(Jin et al., 2012) and Varnam(Kannan et al., 2018) were obtained from Addgene and transferred to pENTR™/SD/D-TOPO® vector using PCR. The vector was sequence verified and then transferred to pLEX_307 vector (Addgene plasmid #41392) that contains the EFlα promoter using the LR reaction. […] The virus was generated for each probe in HEK293-FT cells using an optimized mix of three packaging plasmids (pLP1, pLP2, and pLP/VSVG). The virus was concentrated using PEG-it™ Virus Precipitation Solution (SBI biosciences) that also removes HEK293-FT cell medium.
# To monitor the florescence signal from cells transduced with probes, cells were plated at a density of 200,000 per cm^2 on cultured surfaces for at least 10-15 days prior to imaging, to achieve cell-cell coupling. […]
# Florescence from cells (transduced with probes) was collected separately at a […] using an electron-multiplying charge-coupled device (EMCCD) camera using Andor Revolution X1 Spinning Disk confocal inverted microscope. […] ROS (roGFP2-Grx) probes were excited with 405 nm and 488 nm laser and emission was detected using bandpass filter of 500 nm-554 nm. […] Recovery of glutathione pool was monitored for 180-240 sec before the utilization of diamide (oxidized) and DTT (reduced) to obtain min and max signal. […] Cells transduced with cytoplasmic GCamp6f were excited at 488 nm and emission was detected using bandpass filter of 500 nm-554 nm. […] The data was analyzed using image J (NIH).
compound,measurement,setting,value
Cn1c(=O)c2c(ncn2C)n(C)c1=O [caffeine],calcium amplitude following caffeine exposure (SR load),[1]; cells matured on CMM,significant increase in amplitude
same,calcium release from SR following caffeine exposure,[1]; d30 cells,failed to demonstrate the calcium release
"endothelin 1 (CSCSSLMDKECVYFCHLDIIW; disulfide 1-15, 3-11; ends not checked; UniProt P05305 53-73, looked up) [ET-1, pathological hypertrophy stimulus (E7764 Millipore Sigma)]",effect on action potential duration,[2]; both d30 and CMM,increase
same,effect on beating frequency,[2]; both d30 and CMM,decrease
same,effect on Ca2+ peak amplitude,[2]; cells on CMM,no significant effect
same,effect on oxidative stress handling (roGFP2 after H2O2),[2]; cells on CMM,unperturbed
same,effect on FAO,[2]; cells on CMM,reduction
same,effect on OxPhos,[2]; cells on CMM,no effect
same,effect on glycolysis,[2]; cells on CMM,slight increase
same,effect on respiratory control ratio (state 3/state 4),"[2]; cells on CMM, acute treatment",not affected
same,effect on Ca2+ peak amplitude,[2]; d30 cells,increase in peak amplitude
same,effect on oxidative stress handling (roGFP2 after H2O2),[2]; d30 cells,reduced oxidative stress handling
same,effect on FAO,[2]; d30 cells,increase
same,effect on OxPhos,[2]; d30 cells,significantly increased
same,effect on glycolysis,[2]; d30 cells,significantly increased
CN(CCOc1ccc(NS(C)(=O)=O)cc1)CCc1ccc(NS(C)(=O)=O)cc1 [Dofetilide],tolerance of cells to 10 nM dose,[3]; 10 nM,fail to tolerate
same,effect on action potential,[3]; Dofetilide IKr 3 nM,AP prolongation and early after depolarization (EAD); also recorded: appearance of EAD and APD prolongation
CCN(CC)CC(=O)Nc1c(C)cccc1C [Lidocaine],reduction of beat frequency,"[3]; Lidocaine INa 100 um, 2 biological batches, n=30",~40%
